# Key:
# [1] = Radioligand integrity by thin-layer chromatography; assay type: physicochemical; conditions: over a period of 48 h
# Protocol: The PSMA ligands used in this study were synthesized using solid-phase chemistry methods as previously reported. The labeling of the PSMA ligands with actinium-225 was performed at ITM Medical Isotopes GmbH, Munich, Germany (Supplementary Material: Section S1). The radioligands (~50 kBq/nmol; ~0.5 MBq/mL) were shipped to the Paul Scherrer Institute (PSI) overnight followed by assessing their integrity using thin-layer chromatography. […] Depending on the experiment, the molar activity of the radioligands was adjusted by adding unlabeled ligand and the final formulation was prepared by adding vehicle (saline with 0.05% bovine serum albumin (BSA)) to obtain the desired activity concentration. Radiolabeling of SibuDAB with lutetium-177 (5–10 MBq/nmol) was performed as previously reported.
# BALB/c nude mice = experiment: Comparison of treated (cured) therapy mice with healthy mice at study end; assay type: in vivo
# Protocol: After administration of the radioligands, the mice were monitored over 8 weeks using the same measures as previously published by Umbricht et al.. The relative body mass was defined as [BMx/BM0], where BMx is the body mass in grams at a given Day x and BM0 is the body mass in grams at Day 0. The tumor dimension was determined by measuring the longest tumor axis (L) and its perpendicular axis (W) with a digital caliper. The tumor volume (V) was calculated according to the equation [V = 0.5 × (LW^2)]. The relative tumor volume was defined as [TVx/TV0], where TVx is the tumor volume in mm^3 at a given Day x, and TV0 is the tumor volume in mm^3 at Day 0. Endpoint criteria that required euthanasia were defined as (i) body mass loss of >15%, (ii) a tumor volume of >800 mm^3, (iii) a combination of body mass loss of >10% and a tumor volume of >700 mm^3 or, (iv) signs of unease and pain or a combination thereof using a scoring system as previously reported. The median survival of mice of each group was assessed with Kaplan–Meier curves. Potential early side effects for mice that survived until study end were determined based on blood chemistry and organ-to-brain mass ratios on Day 56 by comparison to values obtained from an additional group of therapy-naïve mice (n = 4) without tumors but of the same age (Supplementary Material: Section S9). […]
# 10. Comparison of [225Ac]Ac-SibuDAB-Treated Mice with Healthy Mice at Study End Purpose: To investigate whether a successful tumor treatment with [225Ac]Ac- […]
# compared to treatment-naïve, non-tumor-bearing mice on Day 56.
# Methods: In order to assess the tolerability of the treatment, the body mass, the organ masses and organ-to-brain mass ratios as well as blood chemistry of the cured mice were compared to those of healthy, non-tumor-bearing BALB/c nude mice on Day 56.
# Results: Survival: Targeted alpha therapy using [225Ac]Ac-SibuDAB was very effec-tive and all mice treated with 5 kBq, 10 kBq or 30 kBq of this radioligand survived until […]
# Body Mass: The body mass of mice that were effectively treated with [225Ac]Ac-SibuDAB was in the same range as for healthy, non-tumor-bearing control mice at the end of the study on Day 56 (p>0.05) ( Table S11).
# [2] = test system: PC3-PIP/flu tumor-bearing mice; experiment: Biodistribution studies; assay type: in vivo, BALB/c nude mice
compound,measurement,setting,value
CC(C)Cc1ccc(C(C)C(=O)NC(CCN)C(=O)NCCCCC(NC(=O)CN2CCN(CC(=O)[O-])CCN(CC(=O)[O-])CCN(CC(=O)[O-])CC2)C(=O)NCC2CCC(C(=O)NC(Cc3ccc4ccccc4c3)C(=O)NCCCCC(NC(=O)NC(CCC(=O)O)C(=O)O)C(=O)O)CC2)cc1.[225Ac+3] (stereo not drawn) [[^225Ac]Ac-SibuDAB],intact radioligand,[1],> 99%
same,ALB,"BALB/c nude mice; Day 56, 5 kBq",25 ± 2 g/L
same,ALP,"BALB/c nude mice; Day 56, 5 kBq",93 ± 10 U/L
same,BUN,"BALB/c nude mice; Day 56, 5 kBq",6.4 ± 1.2 mmol/L
same,Brain mass,"BALB/c nude mice; Day 56, 5 kBq",403 ± 14 mg
same,Kidney mass,"BALB/c nude mice; Day 56, 5 kBq",252 ± 15 mg
same,Kidney-to-brain mass ratio,"BALB/c nude mice; Day 56, 5 kBq",0.63 ± 0.03
same,Liver mass,"BALB/c nude mice; Day 56, 5 kBq",1079 ± 47 mg
same,Liver-to-brain mass ratio,"BALB/c nude mice; Day 56, 5 kBq",2.7 ± 0.1
same,RBM (relative body mass),"BALB/c nude mice; Day 56, 5 kBq",1.13 ± 0.05
same,Spleen mass,"BALB/c nude mice; Day 56, 5 kBq",113 ± 17 mg
same,Spleen-to-brain mass ratio,"BALB/c nude mice; Day 56, 5 kBq",0.28 ± 0.04
same,TBIL,"BALB/c nude mice; Day 56, 5 kBq",4.0 ± 0.9 µmol/L
same,ALB,"BALB/c nude mice; Day 56, 10 kBq",26 ± 2 g/L
same,ALP,"BALB/c nude mice; Day 56, 10 kBq",85 ± 7 U/L
same,BUN,"BALB/c nude mice; Day 56, 10 kBq",7.3 ± 0.8 mmol/L
same,Brain mass,"BALB/c nude mice; Day 56, 10 kBq",384 ± 18 mg
same,Kidney mass,"BALB/c nude mice; Day 56, 10 kBq",260 ± 11 mg
same,Kidney-to-brain mass ratio,"BALB/c nude mice; Day 56, 10 kBq",0.68 ± 0.04
same,Liver mass,"BALB/c nude mice; Day 56, 10 kBq",1139 ± 83 mg
same,Liver-to-brain mass ratio,"BALB/c nude mice; Day 56, 10 kBq",3.0 ± 0.2
same,RBM (relative body mass),"BALB/c nude mice; Day 56, 10 kBq",1.12 ± 0.03
same,Spleen mass,"BALB/c nude mice; Day 56, 10 kBq",116 ± 32 mg
same,Spleen-to-brain mass ratio,"BALB/c nude mice; Day 56, 10 kBq",0.31 ± 0.09
same,TBIL,"BALB/c nude mice; Day 56, 10 kBq",3.2 ± 0.4 µmol/L
same,ALB,"BALB/c nude mice; Day 56, 30 kBq",22 ± 1 g/L
same,ALP,"BALB/c nude mice; Day 56, 30 kBq",83 ± 2 U/L
same,Adverse events in cured mice compared to healthy mice,"BALB/c nude mice; Day 56, 30 kBq",No obvious adverse events
same,BUN,"BALB/c nude mice; Day 56, 30 kBq",7.2 ± 0.7 mmol/L
same,Brain mass,"BALB/c nude mice; Day 56, 30 kBq",408 ± 16 mg
same,Kidney mass,"BALB/c nude mice; Day 56, 30 kBq",252 ± 24 mg
same,Kidney-to-brain mass ratio,"BALB/c nude mice; Day 56, 30 kBq",0.62 ± 0.05
same,Liver mass,"BALB/c nude mice; Day 56, 30 kBq",1096 ± 79 mg
same,Liver-to-brain mass ratio,"BALB/c nude mice; Day 56, 30 kBq",2.7 ± 0.2
same,RBM (relative body mass),"BALB/c nude mice; Day 56, 30 kBq",1.11 ± 0.02
same,Spleen mass,"BALB/c nude mice; Day 56, 30 kBq",127 ± 23 mg
same,Spleen-to-brain mass ratio,"BALB/c nude mice; Day 56, 30 kBq",0.31 ± 0.07
same,TBIL,"BALB/c nude mice; Day 56, 30 kBq",4.3 ± 0.5 µmol/L
same,Kidney-to-brain mass ratio,"BALB/c nude mice; cured mice, Day 56, range over groups",0.62–0.68
same,Tolerability of therapy (body mass increasing over time),BALB/c nude mice; effectively treated PC-3 PIP tumor-bearing mice,well tolerated
same,"Blood, accumulated activity",[2]; 1 h p.i.,23 ± 2 % IA/g
same,"Bone, accumulated activity",[2]; 1 h p.i.,2.5 ± 0.2 % IA/g
same,"Heart, accumulated activity",[2]; 1 h p.i.,7.4 ± 0.9 % IA/g
same,"Intestines, accumulated activity",[2]; 1 h p.i.,2.6 ± 0.5 % IA/g
same,"Kidneys, accumulated activity",[2]; 1 h p.i.,18 ± 1 % IA/g
same,"Liver, accumulated activity",[2]; 1 h p.i.,4.4 ± 0.4 % IA/g
same,"Lung, accumulated activity",[2]; 1 h p.i.,19 ± 2 % IA/g
same,"Muscle, accumulated activity",[2]; 1 h p.i.,2.0 ± 0.4 % IA/g
same,"PC-3 PIP tumor, accumulated activity",[2]; 1 h p.i.,20 ± 2 % IA/g
same,"PC-3 flu tumor, accumulated activity",[2]; 1 h p.i.,4.2 ± 1.1 % IA/g
same,"Salivary glands, accumulated activity",[2]; 1 h p.i.,4.7 ± 0.4 % IA/g
same,"Spleen, accumulated activity",[2]; 1 h p.i.,3.5 ± 0.3 % IA/g
same,"Stomach, accumulated activity",[2]; 1 h p.i.,2.4 ± 0.4 % IA/g
same,Tumor-to-blood ratio,[2]; 1 h p.i.,0.9 ± 0.1
same,Tumor-to-kidney ratio,[2]; 1 h p.i.,1.2 ± 0.1
same,Tumor-to-liver ratio,[2]; 1 h p.i.,4.6 ± 0.5
same,"Blood, accumulated activity",[2]; 4 h p.i.,16 ± 2 % IA/g
same,"Bone, accumulated activity",[2]; 4 h p.i.,2.2 ± 0.5 % IA/g
same,"Heart, accumulated activity",[2]; 4 h p.i.,5.5 ± 0.7 % IA/g
same,"Intestines, accumulated activity",[2]; 4 h p.i.,2.2 ± 0.3 % IA/g
same,"Kidneys, accumulated activity",[2]; 4 h p.i.,19 ± 1 % IA/g
same,"Liver, accumulated activity",[2]; 4 h p.i.,4.0 ± 0.3 % IA/g
same,"Lung, accumulated activity",[2]; 4 h p.i.,10 ± 2 % IA/g
same,"Muscle, accumulated activity",[2]; 4 h p.i.,1.9 ± 0.2 % IA/g
same,"PC-3 PIP tumor, accumulated activity",[2]; 4 h p.i.,45 ± 5 % IA/g
same,"PC-3 flu tumor, accumulated activity",[2]; 4 h p.i.,4.1 ± 0.8 % IA/g
same,"Salivary glands, accumulated activity",[2]; 4 h p.i.,3.7 ± 0.2 % IA/g
same,"Spleen, accumulated activity",[2]; 4 h p.i.,3.0 ± 0.5 % IA/g
same,"Stomach, accumulated activity",[2]; 4 h p.i.,1.8 ± 0.3 % IA/g
same,Tumor-to-blood ratio,[2]; 4 h p.i.,2.9 ± 0.3
same,Tumor-to-kidney ratio,[2]; 4 h p.i.,2.3 ± 0.1
same,Tumor-to-liver ratio,[2]; 4 h p.i.,11 ± 1
same,"Blood, accumulated activity",[2]; 24 h p.i.,3.3 ± 0.7 % IA/g
same,"Bone, accumulated activity",[2]; 24 h p.i.,0.81 ± 0.10 % IA/g
same,"Heart, accumulated activity",[2]; 24 h p.i.,1.5 ± 0.4 % IA/g
same,"Intestines, accumulated activity",[2]; 24 h p.i.,0.85 ± 0.14 % IA/g
same,"Kidneys, accumulated activity",[2]; 24 h p.i.,18 ± 2 % IA/g
same,"Liver, accumulated activity",[2]; 24 h p.i.,3.3 ± 0.4 % IA/g
same,"Lung, accumulated activity",[2]; 24 h p.i.,2.9 ± 0.4 % IA/g
same,"Muscle, accumulated activity",[2]; 24 h p.i.,0.58 ± 0.06 % IA/g
same,"PC-3 PIP tumor, accumulated activity",[2]; 24 h p.i.,80 ± 8 % IA/g
same,"PC-3 flu tumor, accumulated activity",[2]; 24 h p.i.,2.4 ± 0.9 % IA/g
same,"Salivary glands, accumulated activity",[2]; 24 h p.i.,1.7 ± 0.2 % IA/g
same,"Spleen, accumulated activity",[2]; 24 h p.i.,2.3 ± 0.5 % IA/g
same,"Stomach, accumulated activity",[2]; 24 h p.i.,0.72 ± 0.14 % IA/g
same,Tumor-to-blood ratio,[2]; 24 h p.i.,25 ± 6
same,Tumor-to-kidney ratio,[2]; 24 h p.i.,4.7 ± 0.9
same,Tumor-to-liver ratio,[2]; 24 h p.i.,25 ± 5
same,"Blood, accumulated activity",[2]; 48 h p.i.,1.1 ± 0.2 % IA/g
same,"Bone, accumulated activity",[2]; 48 h p.i.,0.48 ± 0.09 % IA/g
same,"Heart, accumulated activity",[2]; 48 h p.i.,0.73 ± 0.17 % IA/g
same,"Intestines, accumulated activity",[2]; 48 h p.i.,0.40 ± 0.08 % IA/g
same,"Kidneys, accumulated activity",[2]; 48 h p.i.,8.6 ± 1.1 % IA/g
same,"Liver, accumulated activity",[2]; 48 h p.i.,2.7 ± 0.5 % IA/g
same,"Lung, accumulated activity",[2]; 48 h p.i.,1.3 ± 0.3 % IA/g
same,"Muscle, accumulated activity",[2]; 48 h p.i.,0.30 ± 0.11 % IA/g
same,"PC-3 PIP tumor, accumulated activity",[2]; 48 h p.i.,64 ± 11 % IA/g
same,"PC-3 flu tumor, accumulated activity",[2]; 48 h p.i.,1.5 ± 0.4 % IA/g
same,"Salivary glands, accumulated activity",[2]; 48 h p.i.,0.92 ± 0.19 % IA/g
same,"Spleen, accumulated activity",[2]; 48 h p.i.,1.9 ± 0.5 % IA/g
same,"Stomach, accumulated activity",[2]; 48 h p.i.,0.38 ± 0.04 % IA/g
same,Tumor-to-blood ratio,[2]; 48 h p.i.,62 ± 11
same,Tumor-to-kidney ratio,[2]; 48 h p.i.,7.4 ± 1.3
same,Tumor-to-liver ratio,[2]; 48 h p.i.,24 ± 4
same,"tumor uptake, higher than for [225Ac]Ac-PSMA-617","[2]; 48 h p.i., PC-3 PIP tumor",2 fold

# From PMC9688344, “[^225Ac]Ac-SibuDAB for Targeted Alpha Therapy of Prostate Cancer: Preclinical Evaluation and Comparison with [^225Ac]Ac-PSMA-617” (Cancers, 2022)
